Source: article PMC3006138, “Fexinidazole – A New Oral Nitroimidazole Drug Candidate Entering Clinical Development for the Treatment of Sleeping Sickness” (PLoS Neglected Tropical Diseases, 2010)
“And” between values parts separate entries of the source, which are not always exact repeats. Equal values may be shown once. “Also recorded” adds a separate entry of the source. Read-outs that look alike come from different tables or passages of the source.

Key:
[1] = tested on: T. b. rhodesiense (STIB 900); assay: In vitro trypanocidal assay (Alamar Blue); assay type: cell-based, Trypanosoma brucei rhodesiense; conditions: Trypanosoma brucei, 72 h; read-out: IC50
Protocol: 10 µL of Alamar Blue was added for the final 3 h to determine viability. […] The IC50 values were calculated from the sigmoidal inhibition curves. For cytotoxicity, 4×10^4/mL L-6 rat skeletal myoblast cells were used, and incubations and assessments carried out as above.

[2] = tested on: cytochrome P450 (CYP450) enzymes; assay: In vitro CYP-450 metabolism (whole panel); assay type: in vitro ADME, human; conditions: 1.0 µM, up to 60 min
Protocol: Duplicate samples of human recombinant CYP enzyme isotypes CYP1A2, CYP2B6, CYP2C8, CYP2C9, CYP2C19, CYP2D6, CYP3A4, CYP3A5 (10–30 pmol/mL) with NADPH as cofactor were incubated with fexinidazole, fexinidazole sulfoxide, or fexinidazole sulfone at a concentration of 1.0 µM for up to 60 min (pH 7.4, 37°C). Detection of the compounds was via HPLC-MS.

[3] = Mouse single-dose plasma pharmacokinetics; assay type: in vivo; conditions: for AUC(0-t) / Cmax / Tmax / AUC(0-inf) / half-life / bioavailability / AUC0–24: plasma; for bioavailability: fexinidazole 25 mg/kg po vs 1 mg/kg iv
Protocol: Blood samples were taken via into heparinised collection tubes and, following centrifugation, plasma was removed and stored frozen until required for assay.
All PK evaluations were carried out using validated high performance liquid chromatography (HPLC) and LC-MS assays, as per standard operating procedures of the laboratories involved.
One mouse PK and brain sampling study was carried out by BioDynamics Ltd., Rushden, UK, according to internal Standard Operating Procedures as a non-GLP regulated study, and animals were maintained as required by the “Code of practice for the housing and care of animals used in scientific procedures” (Home Office, London, 1989).
BioDynamics Study No: DND/01
Two groups of female mice were dosed as follows:
Number Treatment Dose (mg/kg) Route
All doses are expressed as free base
Intravenous doses were administered into a lateral tail vein using an appropriately sized syringe and 25G needle and the oral formulation by oral gavage using a polypropylene gavage tube. All doses were given as a single bolus dose at a constant dose volume of 10.0 mL/kg.
1.6 Blood sample collection
At each sampling time point, three animals in each treatment group were deeply anaesthetised using isoflurane and blood samples (approximately 1 mL) taken into individual heparinised tubes by cardiac puncture, following which the animals were killed by cervical fracture. Samples were collected at the following times post-dose:
Following collection, the blood samples were centrifuged (approximately 10000 g, 2 min at 4 °C) and the plasma retained as one aliquot at approximately -70°C prior to analysis of test material concentrations at BioDynamics by LC-MS/MS.
1.7 Collection of terminal brain samples
Following collection of the terminal blood sample the cranium of each mouse was carefully opened and the brain removed. Excess blood was washed from the brain with distilled water and any excess fluid blotted on absorbent paper. The brain was then snap frozen using liquid nitrogen and placed into a suitably labelled container and stored frozen at approximately -70°C pending analysis.
All of the plasma samples together with the brains from the 15 minute time point were analysed for concentrations of the test material and its sulfone and sulfoxide metabolites. In addition the brains from the 5 and 30 minute time points for the intravenously treated and the 30 and 60 minute time points for the orally treated animals were analysed for concentrations of Fexinidazole and its sulfone and sulfoxide metabolites using an LC-MS/MS method developed at BioDynamics.
All samples were treated as temperature sensitive. Blood samples were collected onto wet ice, followed by centrifugation at 4 °C. Plasma and brain samples were snap frozen on dry ice (plasma) or liquid nitrogen (brains) prior to long term storage at less than -70 °C pending analysis.
Summed transitions were used to enhance sensitivity. No instability of the test materials was noted during the course of analysis or on re-injection of the samples into the mass spectrometer under the […]
3. Pharmacokinetic analysis
The plasma concentration vs time curves obtained following intravenous and oral administration of the test compounds to female mice were analysed using WinNonLin (Version 4.1, Scientific Consulting
Inc. USA). The kinetic data were characterised by a non-compartmental analysis (NCA).
The following pharmacokinetic parameters were derived from the profiles: maximum peak plasma concentration (Cmax); the time of maximum observed concentration (Tmax); the terminal half life (T½), and area under the plasma concentration curve (AUC), 3.1.1 Area under the curve (AUC)
The AUC was determined using the linear/log trapezoidal method. A value of zero was used for any plasma concentrations recorded as below the limits of quantification (LLOQ). The AUCinf (observed) was calculated as the area under the curve from the time of dosing extrapolated to time infinity based on the observed concentrations. The AUClast was also determined. […]

Salmonella typhimurium = assay: Ames test; assay type: cell-based; conditions: for bacterial mutagenicity: standard strains, with and without S9
Protocol: To evaluate bacterial mutagenicity, a full Ames test was carried out on fexinidazole and fexinidazole sulfone using the five strains of Salmonella typhimurium recommended by the relevant ICH regulatory guideline, namely TA1535, TA1537, TA98, TA100, and TA102, as well as the corresponding nitroreductase-deficient strains, [48]. Standard bacterial plate incorporation assays were carried out, essentially as described by Maron and Ames. Tests on fexinidazole were carried out with and without rat liver post-mitochondrial fraction plus co-factors (S9 mix) to provide a mammalian metabolic activation system. The S9 fraction was prepared from Spague-Dawley rats pretreated with the mixed cytochrome P 450 enzyme inducer Aroclor 1254. Tests on fexinidazole sulfone were carried out only in the absence of rat liver S9 (as this is a metabolite). After incubation at 37°C for three days, plates were scored for mutant colonies using a Colony Counter plate reader.

human lymphocytes = assay: In vitro micronucleus test; assay type: cell-based
Protocol: Duplicate human lymphocyte cultures were prepared from the pooled blood of two donors in two independent experiments. […] The test concentrations for micronucleus analysis were selected by evaluating the effect of fexinidazole on the replication index (RI). In each experiment, micronuclei were analysed at three concentrations. Similar tests were carried out on fexinidazole sulfone. As per the Ames test, this was carried out in the absence of rat liver S9 only.

[4] = Half-life after oral treatment across species; assay type: in vivo; conditions: mouse, rat, dog, plasma, mice, rats and dogs
hERG = hERG (Homo sapiens, UniProt Q12809); assay: hERG tail current, patch clamp in HEK 293 cells; conditions: for Residual Current (% of control): 37°C
Protocol: Formulation and stored at 2-4°C when not in use. When in use Tyrode solution was stored at
CaCl2, 1 MgCl2, 5.5 glucose and 5 HEPES. During the patch-clamp experiments the Tyrode
4.2.4. Storage and Formulation of Internal Solution
The internal solution was stored frozen at – 20°C until the day of use. The composition of
the internal solution was (in mM): 110 K+- aspartate, 23 KCl, 3 MgCl2, 1 EGTA, 5 HEPES,
0.4 GTP (Na+ salt), 5 ATP (Na+ salt), 5 creatine phosphate, 0.4 CaCl2 (pH 7.3 with KOH).
4.3.1. Source and Maintenance of hERG Transfected Cells
HEK 293 cells stably transfected with hERG cDNA, supplied by bSys GmbH Switzerland,
continuously maintained and passaged in sterile culture flasks containing a mixture of
Dulbecco’s modified Eagle’s medium and nutrient mixture F-12 supplemented with 10%
foetal bovine serum, 0.9% Penicillin/Streptomycin solution, Hygromycin B and Blasticidin.
HEK 293 cells were passaged at a confluence of about 80%. For electrophysiology studies,
the cells were seeded in Petri dishes (35x10 mm), with culture medium containing
tetracycline to activate channel expression, at a density that enables isolated cells to be
selected for patch-clamping. The dishes were stored in a humidified, gassed (5% CO2)
Petri dishes containing the cells to be used for electrophysiological studies were mounted on
the stage of an inverted microscope and were superfused with Tyrode solution. Membrane
currents were recorded (Axopatch 200B, Axon Instruments) in the whole cell configuration
by using suction pipettes (Harvard apparatus, 1.5 mm o.d. x 0.86 mm i.d.) with tip resistance
in the range of 2.5-3.5 MΩ. Gigaohm seals were formed between the patch electrodes and
individual cells. If the quality of the seal was judged to be poor, the electrode was replaced
and the process repeated with a different cell. Once a stable patch was achieved, recording
was commenced in voltage-clamp mode, with the cell initially clamped at –80 mV. Series
resistance and capacitance were compensated to about 70% of their initial value. Cells were
perfused through a microperfusion system allowing for solution changes to occur within
approximately one second. Computer software (pClamp version 8.0; Axon Instruments) was
used to generate voltage clamp protocols, acquire data and analyze current traces. The data
were stored on a computer hard disk for later analysis. Experiments were performed at a
temperature in the recording chamber of 37 ± 1°C, which was maintained with a temperature
Cells stably expressing hERG were held at –80 mV. Onset and steady state block of the
hERG channel current (IKr) due to the test items were monitored using a pulse pattern with
fixed amplitudes (first depolarization: -50 mV for 500 ms; second depolarization: +20 mV
for 2 seconds; hyperpolarization: -50 mV for 7 seconds). This pulse pattern was repeated
every 15 seconds, and current amplitude at the onset of the second step to –50 mV (“peak
tail current”) was monitored until a steady state was obtained. Recordings were acquired at
the sampling interval of 2 kHz and low-pass filtered at 1 kHz. The steady state peak tail
current was monitored and recorded in vehicle solution and then the test item was applied to
the bath solution. At the end the reference item E4031 was applied to block 100% of the
current for determination of the current “leak” response to the stimulation protocol. The
current amplitude was continually monitored through the onset of the voltage step to –50
mV until a new steady state level of current was achieved. Each cell was exposed to a single
test substance concentration.
4.5. Statistical Analysis
For each cell the effect of the test items was ascertained by calculating the residual current as
percentage of control (% control). All data were corrected for “leak” current by subtracting
Each value represents the average current
recorded from 3 sequential voltage pulses. Data from individual cells was collected and the

[5] = female, NMRI, mouse, iv, 1 mg/kg, fexinidazole 1 mg/kg iv, read-out: AUC0-24
[6] = female, NMRI, mouse, iv, 1 mg/kg, fexinidazole 1 mg/kg iv, read-out: Cmax
[7] = female, NMRI, mouse, po, 25 mg/kg, fexinidazole 25 mg/kg po, read-out: AUC0–24
[8] = female, NMRI, mouse, fexinidazole 1 mg/kg iv
[9] = female, NMRI, mouse, fexinidazole 25 mg/kg po
[10] = female, NMRI, mouse, po, 25 mg/kg, fexinidazole 25 mg/kg po, female NMRI mice, read-out: Cmax

hERG, sequence (Q12809 whole entry): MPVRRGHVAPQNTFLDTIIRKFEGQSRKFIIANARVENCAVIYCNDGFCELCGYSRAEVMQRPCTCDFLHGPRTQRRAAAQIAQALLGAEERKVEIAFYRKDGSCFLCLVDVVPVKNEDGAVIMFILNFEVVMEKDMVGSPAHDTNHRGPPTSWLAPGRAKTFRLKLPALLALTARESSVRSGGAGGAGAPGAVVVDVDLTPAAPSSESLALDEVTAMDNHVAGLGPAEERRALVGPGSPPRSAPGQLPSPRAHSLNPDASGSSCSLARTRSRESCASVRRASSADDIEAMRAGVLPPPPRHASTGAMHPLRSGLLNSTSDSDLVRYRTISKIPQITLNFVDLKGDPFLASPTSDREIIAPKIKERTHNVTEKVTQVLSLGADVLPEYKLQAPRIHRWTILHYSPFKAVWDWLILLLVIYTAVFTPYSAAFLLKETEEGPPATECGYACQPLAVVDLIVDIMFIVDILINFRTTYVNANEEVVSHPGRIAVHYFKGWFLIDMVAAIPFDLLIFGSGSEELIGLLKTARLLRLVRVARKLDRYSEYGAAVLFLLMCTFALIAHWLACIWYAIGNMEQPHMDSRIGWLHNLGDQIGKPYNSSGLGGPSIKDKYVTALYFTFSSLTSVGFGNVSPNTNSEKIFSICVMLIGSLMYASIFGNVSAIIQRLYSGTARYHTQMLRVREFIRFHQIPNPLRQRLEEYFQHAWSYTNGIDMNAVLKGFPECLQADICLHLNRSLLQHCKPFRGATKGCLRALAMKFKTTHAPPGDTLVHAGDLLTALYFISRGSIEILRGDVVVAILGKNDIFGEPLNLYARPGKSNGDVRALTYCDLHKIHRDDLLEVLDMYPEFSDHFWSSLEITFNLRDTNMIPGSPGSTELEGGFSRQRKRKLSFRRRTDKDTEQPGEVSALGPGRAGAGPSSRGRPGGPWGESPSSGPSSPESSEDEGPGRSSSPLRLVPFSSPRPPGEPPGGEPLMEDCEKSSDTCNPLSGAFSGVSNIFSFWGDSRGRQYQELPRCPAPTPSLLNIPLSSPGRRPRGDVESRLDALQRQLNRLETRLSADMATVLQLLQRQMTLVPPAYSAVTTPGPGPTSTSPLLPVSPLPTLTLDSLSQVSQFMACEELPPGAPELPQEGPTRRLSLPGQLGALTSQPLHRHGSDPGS

| Compound | IC50 [1] | metabolism by the enzymes tested [2] | AUC(0-t) [3, 5] | Cmax [3, 6] | AUC(0-t) [3, 7] | Tmax [3, 8] | AUC(0-inf) [3, 9] | Tmax [3, 9] | half-life [3, 9] | bioavailability ([3]; female, NMRI, mouse) | bacterial mutagenicity (Salmonella typhimurium) | in vitro micronucleus test result (human lymphocytes) | half-life [4] | Residual Current (% of control) (hERG; 1 µM) | Residual Current (% of control) (hERG; 5 µM) | Residual Current (% of control) (hERG; 30 µM) | Cmax [3, 10] | AUC(0-inf) [3, 8] | half-life [3, 8] | effect on hERG peak tail current (hERG; 1, 5 and 30 µM) | further results |
| --- | --- | --- | --- | --- | --- | --- | --- | --- | --- | --- | --- | --- | --- | --- | --- | --- | --- | --- | --- | --- | --- |
| Cn1c([N+](=O)[O-])cnc1COc1ccc(S(C)(=O)=O)cc1 [Fexinidazole sulfone] | 0.35 µg/mL to 0.4 µg/mL and 1.14 µM to 1.3 µM | none of the enzymes tested metabolised | 7990 ng·h/mL | 511 ng/mL | 96300 ng·h/mL | 120 min | 96300 ng·h/mL | 240 min | 102 min | 48.8% | gave similar results to fexinidazole | negative | ≤ 1440 min | 96.16±8.15% | 90.76±3.84% | 67.41±2.24% |  |  |  |  | Cmax ([3]; fexinidazole 1 mg/kg iv): 790.4 ng/mL; Cmax ([3]; fexinidazole 25 mg/kg po, female NMRI mice, listed as Sulfone): 13651.3 ng/mL; Cmax ([3]; fexinidazole 25 mg/kg po, female NMRI mice, listed as Sulfone metabolite): 13651 ng/mL; Cmax ([3]; fexinidazole 25 mg/kg po, female NMRI mice, listed as sulfone): 6599.6 ng/mL; AUC0–24 ([3]; fexinidazole 25 mg/kg po, listed as Sulfone metabolite): 96286 ng·h/mL; decrease on hERG peak tail current (hERG; 30 µM, 9.34 µg/mL): 33%; effect on hERG peak tail current (hERG; 1 or 5 µM): no effect |
| Cn1c([N+](=O)[O-])cnc1COc1ccc([S+](C)[O-])cc1 (stereo not shown) [Fexinidazole sulfoxide] | 0.41 µg/mL to 0.49 µg/mL and 1.33 µM to 1.65 µM | none of the enzymes tested metabolised | 1590 ng·h/mL | 918 ng/mL | 45000 ng·h/mL | 15 min | 45000 ng·h/mL | 30 min | 60 min |  |  |  | 120 to 420 min | 87.06±0.92% | 101.39±8.64% | 98.04±1.52% | 14200 ng/mL | 1560 ng·h/mL | 36 min | judged not to affect hERG peak tail current | AUC0–24 ([3]; fexinidazole 25 mg/kg po, listed as Sulfoxide metabolite): 45031 ng·h/mL |
| CSc1ccc(OCc2ncc([N+](=O)[O-])n2C)cc1 [Fexinidazole, 1-methyl-2-((p-(methylthio)phenoxy)methyl)-5-nitroimidazole] | 0.48 µg/mL to 0.82 µg/mL and 1.71 µM to 2.93 µM |  | 41 ng·h/mL | 164 ng/mL | 424 ng·h/mL | 5 min | 439 ng·h/mL | 15 min | 48 min | 41.4% | elicited both frameshift and base substitution mutations; also recorded: mutagenic in the Ames test | did not induce the formation of micronuclei | 60 to 180 min | 100.12±4.29% | 94.86±1.06% | 88.97±8.21% | 500 ng/mL | 42 ng·h/mL | 6 min | judged not to affect hERG peak tail current | clinical signs ([3]; 1 mg/kg iv or 25 mg/kg po): No clinical signs were observed; bioavailability ([3]; female, mouse): 41%; Cmax ([3]; fexinidazole 25 mg/kg po, female NMRI mice): 500 ng/mL; mutagenic activity (Salmonella typhimurium; nitroreductase-deficient Salmonella strains): significantly reduced or abolished; Micronucleated binucleate cells (human lymphocytes; 20 μg/mL, 24-h PHA, +S9): 0.50%; Micronucleated binucleate cells (human lymphocytes; 20 μg/mL, 24-h PHA, −S9): 0.50%; Micronucleated binucleate cells (human lymphocytes; 20 μg/mL, 48-h PHA, +S9): 0.60%; Micronucleated binucleate cells (human lymphocytes; 20 μg/mL, 48-h PHA, −S9): 1.1%; Micronucleated binucleate cells (human lymphocytes; 40 μg/mL, 24-h PHA, +S9): 0.55%; Micronucleated binucleate cells (human lymphocytes; 40 μg/mL, 24-h PHA, −S9): 0.40%; Micronucleated binucleate cells (human lymphocytes; 40 μg/mL, 48-h PHA, +S9): 1.20%; Micronucleated binucleate cells (human lymphocytes; 40 μg/mL, 48-h PHA, −S9): 0.60%; Micronucleated binucleate cells (human lymphocytes; 80 μg/mL, 24-h PHA, +S9): 0.75%; Micronucleated binucleate cells (human lymphocytes; 80 μg/mL, 24-h PHA, −S9): 0.70%; Micronucleated binucleate cells (human lymphocytes; 80 μg/mL, 48-h PHA, +S9): 0.40%; Micronucleated binucleate cells (human lymphocytes; 80 μg/mL, 48-h PHA, −S9): 0.90% |
